Here are results for one compound from patent publication US10799522B2, “Compositions and methods relating to galectin detection” (Wayne State University, priority 2015, dated 2020).

The data set in a line: dynamic PET/CT imaging, pharmacokinetics and biodistribution in a normal rat. The class given is in vivo, Sprague-Dawley rats. The procedure: Sprague-Dawley rats (males, ˜250 g) were anesthetized using inhalation of 2% isoflurane in oxygen, and their body temperature maintained at 37° C. by a heating pad with a feedback temperature control. […] Dynamic PET images were acquired in the list-mode and reconstructed using OSEM algorithm at multiple time frames post radiotracer administration (0-2, 2-4, 4-6, 6-8, 8-10, 10-20, 20-30, 30-40, 40-50, 50-60 min), followed by a whole body image that has been acquired using 3 consecutive bed positions, 5 min/bed position. Thereafter, while still fixed to the positioning bed, the rats were moved with the bed into the gantry of the INVEON SPECT/CT (Siemens) and CT images were acquired over the whole body area for attenuation correction of PET images and for production of PET/CT images. PET/CT fusion images were generated and analyzed using the AMIDE software version 1.0.4. […] The data was analyzed using GraphPad Prism version 6 (GraphPad Prism, Inc.) and pharmacokinetic parameters of clearance were calculated by fitting the resultant time-activity curves with exponential or bi-exponential functions.

The mark [1] stands for this setting: rats, i.v., bi-exponential clearance from the blood.
[2] abbreviates: rats, i.v., mono-exponential kinetics.

Entries after “also recorded” stand apart in the source; their conditions may differ.

Turning to `OCC1OC(SC2OC(CO)C(O)C(n3cc(-c4cccc([18F])c4)nn3)C2O)C(O)C(n2cc(-c3cccc(F)c3)nn2)C1O` [[^18F]FPTDG, 3-(3-[^18F]fluorophenyltriazolyl)-3-deoxy-3′-(3-fluorophenyltriazolyl)-3′-deoxy-1-thio-β-D-digalactopyranoside], for the setting “[^18F]-fluoride radioactivity accumulation in the bone”, the defluorination entry is given as “Minimal, but detectable”. The “radioactivity levels in all major organs and tissues, including the liver and gall bladder” value (after 75 min post intravenous administration) is given as “very low”. Moreover, the “primary radiation dose-limiting organs” value (based on dynamic PET/CT imaging results) is “liver and gall bladder; also recorded: liver and gallbladder”. The pharmacologic toxicity entry (radiotracer doses) is recorded as “No pharmacologic toxicity can be anticipated or actually observed; also recorded: No acute pharmacologic toxicity at radiotracer doses has been observed”. Further, under “rats, i.v.”, the “accumulation or retention of radioactivity in the lungs, muscles, and other organs and tissues” value was “extremely low; also recorded: No substantial uptake or retention”; the “crossing of the blood-brain barrier (radioactivity in the brain)” value is given as “does not cross the blood-brain barrier (BBB)”; the route of excretion result is reported as “predominantly via the hepatobiliary route of excretion; also recorded: primarily excreted via the hepatobiliary route”. For the same compound, under setting [1], the “blood fast clearance half-time” value is listed as 0.5 min and the “blood slow clearance half-time” value came out at 7.36 min. Under setting [2], this compound had a kidney clearance half-time of 68 min and a liver clearance half-time of 53 min. Moreover, the renal clearance result (rats, i.v., radioactivity in the bladder) was “insignificant”. Further, for the setting “rats, bone accumulation at 60-75 min post injection”, the magnitude of catabolism entry is given as “negligible”.
